Experimental data reported in ChEMBL document CHEMBL1201862, “PubChem BioAssay data set” (2004).
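Exposure lasted 48 hours, with cells grown in 96-well plates and compounds tested at five concentrations. At the GI50, growth is halved.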 Calls of active or inactive are those of the source. Cut-off read from the data, not from the text of the source: active = GI50 up to about 1.1 µM and inactive = higher.

Legend:
Test in all cases: inhibition of tumour cell growth, NCI panel, 48 h
K562 = system: K562
U-251 = system: U-251
SW-620 = system: SW-620
NCI-H460 = system: NCI-H460
ACHN = system: ACHN
SNB-75 = system: SNB-75
MDA-N = system: MDA-N
NCI/ADR-RES = system: NCI/ADR-RES
NCI-H23 = system: NCI-H23
MDA-MB-435 = system: MDA-MB-435
SK-MEL-2 = system: SK-MEL-2
M14 = system: M14
PC-3 = system: PC-3
HL-60 = system: HL-60
CCRF-CEM = system: CCRF-CEM
LOX IMVI = system: LOX IMVI
A549 = system: A549
HT-29 = system: HT-29
RPMI-8226 = system: RPMI-8226
SNB-19 = system: SNB-19

Measured: GI50

O=c1[nH]nc(Cc2ccccc2)n1/N=C/c1c[nH]c2ccccc12
inactive: K562 > 100 µM | U-251 52.1 µM | SW-620 > 100 µM | NCI-H460 > 100 µM | ACHN > 100 µM | SNB-75 13.3 µM | MDA-N 29.8 µM | NCI/ADR-RES 82.6 µM | NCI-H23 > 100 µM | MDA-MB-435 81.7 µM | SK-MEL-2 > 100 µM | M14 > 100 µM | PC-3 92 µM | HL-60 > 100 µM | CCRF-CEM > 100 µM | LOX IMVI > 100 µM | A549 66.1 µM | HT-29 71.6 µM | RPMI-8226 > 100 µM | SNB-19 49.5 µM

CC(C)OC(=O)c1ccc(CCc2cc(O)c(Br)cc2O)cc1
inactive: K562 8.65 µM | U-251 7.48 µM | SW-620 8.65 µM | NCI-H460 18.6 µM | ACHN 18 µM | SNB-75 21 µM | MDA-N 9.55 µM | NCI/ADR-RES 9.2 µM | NCI-H23 8.85 µM | MDA-MB-435 8.11 µM | SK-MEL-2 13.1 µM | M14 15.6 µM | PC-3 8.32 µM | HL-60 5.85 µM | CCRF-CEM 3.92 µM | LOX IMVI 8.04 µM | A549 20.3 µM | HT-29 18.7 µM | RPMI-8226 2.72 µM | SNB-19 14.8 µM

CC1(C)OCC(C2OC(=O)C(OCc3ccccc3)=C2OCc2ccccc2)O1 (stereo not given)
inactive: K562 27.4 µM | U-251 39.2 µM | SW-620 51.8 µM | NCI-H460 41 µM | ACHN 31.5 µM | SNB-75 49.9 µM | MDA-N 38 µM | NCI/ADR-RES 35.2 µM | NCI-H23 18.4 µM | MDA-MB-435 26.9 µM | SK-MEL-2 23.1 µM | M14 45.5 µM | PC-3 21 µM | HL-60 22.9 µM | CCRF-CEM 37.8 µM | LOX IMVI 31.2 µM | A549 32.9 µM | HT-29 51.4 µM | RPMI-8226 24 µM | SNB-19 55.3 µM

Sc1ccc2ccccc2c1CNCc1ccccc1
inactive: K562 13.3 µM | U-251 12.8 µM | SW-620 9.12 µM | NCI-H460 24.1 µM | ACHN 19 µM | SNB-75 15.7 µM | MDA-N 13.2 µM | NCI/ADR-RES 25.4 µM | NCI-H23 14.5 µM | MDA-MB-435 12.3 µM | SK-MEL-2 19.7 µM | M14 10 µM | PC-3 18.8 µM | HL-60 5.77 µM | CCRF-CEM 3.72 µM | LOX IMVI 5.78 µM | A549 25.3 µM | HT-29 27.9 µM | RPMI-8226 12.5 µM | SNB-19 24.3 µM

O=C(Nc1ccccc1)OCCN=c1c2ccccc2ccc2ccccc12
inactive: K562 14.7 µM | U-251 25.9 µM | SW-620 31.9 µM | NCI-H460 22.8 µM | ACHN 20.9 µM | SNB-75 26 µM | MDA-N 18.5 µM | NCI/ADR-RES 21.3 µM | NCI-H23 35.1 µM | MDA-MB-435 27.6 µM | SK-MEL-2 11.3 µM | M14 19.1 µM | PC-3 20.9 µM | HL-60 17 µM | CCRF-CEM 18.9 µM | LOX IMVI 20.3 µM | A549 19.9 µM | HT-29 17.2 µM | RPMI-8226 15.5 µM | SNB-19 15.9 µM
